Patent US8778896B2, “Levoisovalerylspiramycin I, II or III, preparations, preparation methods and uses thereof” (Shenyang Tonglian Group Co., Ltd., priority 2010, dated 2014)
In brackets after ≈: the same amount, converted by molar mass.

How the values were obtained:
[1] = tested on: pyogenic streptococcus 102; assay: MIC against the infecting test organism; assay type: cell-based; conditions: read-out: MIC
[2] = tested on: staphylococcus aureus76; assay: MIC against the infecting test organism; assay type: cell-based, staphylococcus aureus; conditions: read-out: MIC
[3] = Acute toxicity on mice via oral administration; conditions: 4000 mg/kg
Description: Both mice and rats take drugs orally (levoisovalerylspiramycin I, II and III prepared in Embodiment 1)
After observing the mice and rats for two days before test, and those without abnormal conditions is carried out test. Don't give anything to eat to mice and rats overnight before test. […] In this test, feed drugs to mice and rats respectively as per 4000 mg/kg, wherein, mice follow 100 mg/ml, with intragastric administration capacity of 0.6-0.8 ml per one, while rats 173 mg/ml, with intragastric administration capacity of 0.8˜1.0 ml/50 g. Observe those taking drugs for one week for toxic reaction and death.

[4] = tested on: streptococcus pneumoniae57; assay: MIC against the infecting test organism; assay type: cell-based, streptococcus pneumoniae; conditions: read-out: MIC
[5] = tested on: pyogenic streptococcus 772; assay: Curative effect on mouse with abdominal infection (ED50); assay type: in vivo; conditions: Streptococcus, 772, 168 h, pyogenic streptococcus 772, challenging dose 6.9 × 10^3 CFU/0.5 ml, deaths in 7 days, Bliss, read-out: ED50
Description: (§1) Test method: preparation of infection bacterial liquid: taking out the test bacterial liquid which is kept in a refrigerator at −80[…] to room temperature for about 1 h, then inoculating streptococcus pneumonia, pyogenic streptococcus and enterococcus absorbing 0.1 ml bacterial liquid respectively to 2 ml MH broth (add 10% inactivated horse serum), and inoculating 0.1 ml bacterial liquid of staphylococcus aureus to 2 ml MH broth according to the same method above; putting it in an incubator at 37[…] to be cultivated for 18 h, to obtain original bacterial liquid; diluting the original bacterial liquid with 5% gastric mucin to make animals infected with 100% lethal bacteria, to obtain infection bacterial liquid.
(§2) The clinical route of administration of carrimycin is proposed to be oral administration, thus intragastric administration is adopted in carrimychin test. Levoisovalerylspiramycin I (obtained in Embodiment 1) and of crystalline compound of levoisovalerylspiramycin I (prepared in Embodiment 27) are fed to animals via […].
(§3) After the mice are infected, respectively feed each mouse 0.2 ml via intragastric administration at 0.5 to 6 h, and they have no adverse reaction. Observe the number of deaths in 7 days, and calculate the 50% effective dose (ED50) of each drug for the infected mouse and compare the protective effect of drugs by Bliss program.

[6] = tested on: pyogenic streptococcus 102; assay: as above; assay type: in vivo; conditions: Streptococcus, 102, 168 h, pyogenic streptococcus 102, challenging dose 7.8 × 10^4 CFU/0.5 ml, deaths in 7 days, Bliss, read-out: ED50
Description: as §1, §2, §3

[7] = tested on: pyogenic streptococcus 119; assay: as above; assay type: in vivo; conditions: Streptococcus, 119, 168 h, pyogenic streptococcus 119, challenging dose 4.9 × 10^4 CFU/0.5 ml, deaths in 7 days, Bliss, read-out: ED50
Description: as §1, §2, §3

[8] = tested on: staphylococcus aureus (155); assay: Clinical isolates, agar double dilution method; assay type: cell-based; conditions: 155 clinical isolates of staphylococcus aureus; for MIC50: read-out: MIC50; for MIC90: read-out: MIC90
[9] = tested on: streptococcus pneumoniae3; assay: Curative effect on mouse with abdominal infection (ED50); assay type: in vivo, streptococcus pneumoniae; conditions: Streptococcus, 168 h, streptococcus pneumoniae3, challenging dose 6.4 × 10^4 CFU/0.5 ml, deaths in 7 days, Bliss, read-out: ED50
Description: as §1, §2, §3

[10] = tested on: streptococcus pneumoniae18; assay: as above; assay type: in vivo, streptococcus pneumoniae; conditions: Streptococcus, 168 h, streptococcus pneumoniae18, challenging dose 9.6 × 10^4 CFU/0.5 ml, deaths in 7 days, Bliss, read-out: ED50
Description: as §1, §2, §3

[11] = tested on: streptococcus pneumoniae57; assay: as above; assay type: in vivo, streptococcus pneumoniae; conditions: Streptococcus, 168 h, streptococcus pneumoniae57, challenging dose 8.8 × 10^4 CFU/0.5 ml, deaths in 7 days, Bliss, read-out: ED50
Description: as §1, §2, §3

[12] = tested on: gonococcus (10); assay: Clinical isolates, agar double dilution method; assay type: cell-based; conditions: 10 clinical isolates of gonococcus; for MIC50: read-out: MIC50; for MIC90: read-out: MIC90
[13] = tested on: enterococcus32; assay: MIC against the infecting test organism; assay type: cell-based, enterococcus; conditions: Enterococcus, read-out: MIC
[14] = tested on: staphylococcus aureus16; assay: MIC against the infecting test organism; assay type: cell-based, staphylococcus aureus; conditions: read-out: MIC
[15] = tested on: enterococcus (106); assay: Clinical isolates, agar double dilution method; assay type: cell-based; conditions: 106 clinical isolates of enterococcus; for MIC50: read-out: MIC50; for MIC90: read-out: MIC90
[16] = tested on: staphylococcus aureus76; assay: Curative effect on mouse with abdominal infection (ED50); assay type: in vivo, staphylococcus aureus; conditions: Staphylococcus, AUREUS76, 168 h, staphylococcus aureus76, challenging dose 5.8 × 10^4 CFU/0.5 ml, deaths in 7 days, Bliss, read-out: ED50
Description: as §1, §2, §3

[17] = tested on: staphylococcus aureus16; assay: as above; assay type: in vivo, staphylococcus aureus; conditions: Staphylococcus, AUREUS16, 168 h, staphylococcus aureus16, challenging dose 5.2 × 10^3 CFU/0.5 ml, deaths in 7 days, Bliss, read-out: ED50
Description: as §1, §2, §3

[18] = tested on: staphylococcus aureus21; assay: as above; assay type: in vivo, staphylococcus aureus; conditions: Staphylococcus, AUREUS21, 168 h, staphylococcus aureus21, challenging dose 4.2 × 10^4 CFU/0.5 ml, deaths in 7 days, Bliss, read-out: ED50
Description: as §1, §2, §3

[19] = tested on: staphylococcus aureus12; assay: as above; assay type: in vivo, staphylococcus aureus; conditions: Staphylococcus, AUREUS12, 168 h, staphylococcus aureus12, challenging dose 4.8 × 10^4 CFU/0.5 ml, deaths in 7 days, Bliss, read-out: ED50
Description: as §1, §2, §3

[20] = tested on: staphylococcus aureus12; assay: MIC against the infecting test organism; assay type: cell-based, staphylococcus aureus; conditions: read-out: MIC
[21] = tested on: hemophilus influenzae (37); assay: Clinical isolates, agar double dilution method; assay type: cell-based; conditions: 37 clinical isolates of hemophilus influenzae; for MIC50 / MIC90: Haemophilus influenzae; for MIC50: read-out: MIC50; for MIC90: read-out: MIC90
[22] = tested on: pyogenic streptococcus 772; assay: MIC against the infecting test organism; assay type: cell-based; conditions: read-out: MIC
[23] = tested on: pyogenic streptococcus (93); assay: Clinical isolates, agar double dilution method; assay type: cell-based; conditions: 93 clinical isolates of pyogenic streptococcus; for MIC50: read-out: MIC50; for MIC90: read-out: MIC90

SMILES	MIC [1]	MIC [2]	LD50 at 1 week ([3]; mouse, in vivo, po)	MIC [4]	ED50 [5]	ED50 [6]	ED50 [7]	MIC50 [8]	MIC90 [8]	ED50 [9]	ED50 [10]	ED50 [11]	MIC range [12]	MIC50 [12]	MIC90 [12]	MIC [13]	MIC [14]	MIC50 [15]	MIC90 [15]	ED50 [16]	also measured
COC1C(O)CC(=O)OC(C)C/C=C/C=C/C(OC2CCC(N(C)C)C(C)O2)C(C)CC(CC=O)C1OC1OC(C)C(OC2CC(C)(O)C(OC(=O)CC(C)C)C(C)O2)C(N(C)C)C1O (stereo not shown) [Levoisovalerylspiramycin I, levoisovalerylspiramycin I]	0.12 µg/mL (≈ 0.129 µM)	0.5 µg/mL (≈ 0.539 µM)	> 4000 mg/kg	0.06 µg/mL (≈ 0.0647 µM)	26.1 mg/kg	66.4 mg/kg	57.2 mg/kg	1 µg/mL (≈ 1.08 µM)	64 µg/mL (≈ 69 µM)	9.73 mg/kg	9.51 mg/kg	13.9 mg/kg	0.12 to 16 µg/mL	1 µg/mL (≈ 1.08 µM)	4 µg/mL (≈ 4.31 µM)	0.5 µg/mL (≈ 0.539 µM)	0.5 µg/mL (≈ 0.539 µM)	1 µg/mL (≈ 1.08 µM)	32 µg/mL (≈ 34.5 µM)	24.4 mg/kg	Mortality rate (%) ([3]; mice, oral): 35%; mortality ([3]; mice, oral, deaths of 20 animals, observed one week): 7; ED50 [17]: 23.5 mg/kg; ED50 [18]: 42.7 mg/kg; ED50 [19]: 110 mg/kg; MIC [20]: 1 µg/mL (≈ 1.08 µM); MIC range [21]: 0.03 to 32 µg/mL; MIC50 [21]: 0.12 µg/mL (≈ 0.129 µM); MIC90 [21]: 1 µg/mL (≈ 1.08 µM); MIC [22]: 0.06 µg/mL (≈ 0.0647 µM); MIC50 [23]: 0.25 µg/mL (≈ 0.27 µM); MIC90 [23]: 32 µg/mL (≈ 34.5 µM)
COC1C(OC(C)=O)CC(=O)OC(C)C/C=C/C=C/C(OC2CCC(N(C)C)C(C)O2)C(C)CC(CC=O)C1OC1OC(C)C(OC2CC(C)(O)C(OC(=O)CC(C)C)C(C)O2)C(N(C)C)C1O (stereo not shown) [Levoisovalerylspiramycin II, levoisovalerylspiramycin II]	0.12 µg/mL (≈ 0.124 µM)	0.25 µg/mL (≈ 0.258 µM)	> 4000 mg/kg	0.06 µg/mL (≈ 0.0619 µM)	24.6 mg/kg	63.2 mg/kg	52.8 mg/kg	1 µg/mL (≈ 1.03 µM)	32 µg/mL (≈ 33 µM)	8.99 mg/kg	8.98 mg/kg	13.1 mg/kg	0.12 to 16 µg/mL	1 µg/mL (≈ 1.03 µM)	4 µg/mL (≈ 4.13 µM)	0.25 µg/mL (≈ 0.258 µM)	0.25 µg/mL (≈ 0.258 µM)	1 µg/mL (≈ 1.03 µM)	16 µg/mL (≈ 16.5 µM)	22.3 mg/kg	Mortality rate (%) ([3]; mouse, in vivo, po, 1 week): 35%; mortality ([3]; mouse, in vivo, po, 1 week): 7; ED50 [17]: 20.9 mg/kg; ED50 [18]: 38.9 mg/kg; ED50 [19]: 108 mg/kg; MIC [20]: 1 µg/mL (≈ 1.03 µM); MIC range [21]: 0.03 to 32 µg/mL; MIC50 [21]: 0.12 µg/mL (≈ 0.124 µM); MIC90 [21]: 1 µg/mL (≈ 1.03 µM); MIC [22]: 0.06 µg/mL (≈ 0.0619 µM); MIC50 [23]: 0.25 µg/mL (≈ 0.258 µM); MIC90 [23]: 32 µg/mL (≈ 33 µM)
